Reference: ChEMBL document CHEMBL4229516, “Design, synthesis and biological evaluation of a series of novel GPR40 agonists containing nitrogen heterocyclic rings” (Bioorg Med Chem Lett, 2018)

Tests used:
[1] = target: T1, Free fatty acid receptor 1 (Homo sapiens, UniProt O14842); assay: Transactivation of human GPR40 expressed in HEK293 cells at 10 uM after 24 hrs by Elk-Gal4 luciferase reporter assay relative to TAK-875; format: functional, cell-based
[2] = target: T1, Free fatty acid receptor 1; assay: Transactivation of human GPR40 expressed in HEK293 cells after 24 hrs by Elk-Gal4 luciferase reporter assay; format: functional, cell-based
CYP2C9 = CYP2C9 (Homo sapiens, UniProt P11712); assay: Inhibition of CYP2C9 in human liver microsomes at 5 uM using diclofenac sodium as substrate by LC-MS/MS analysis relative to control; format: ADME; details: probe diclofenac sodium
[3] = Induction of 16.8 mM glucose-stimulated insulin secretion in ICR mouse primary pancreatic islets assessed per protein at 10 uM after 1 hr by ELISA (reference value: 1.8 +/- 0.6 ng/ml); format: functional, Pancreatic islet
CYP2D6 [4] = target: T2, CYP2D6 (Homo sapiens, UniProt P10635); assay: Inhibition of CYP2D6 in human liver microsomes at 5 uM using dextromethorphan as substrate by LC-MS/MS analysis relative to control; format: ADME; details: probe dextromethorphan
CYP3A4 = CYP3A4 (Homo sapiens, UniProt P08684); assay: Inhibition of CYP3A4 in human liver microsomes at 5 uM using midazolam as substrate by LC-MS/MS analysis relative to control; format: ADME; details: probe midazolam
CYP1A2 [5] = target: T3, CYP1A2 (Homo sapiens, UniProt P05177); assay: Inhibition of CYP1A2 in human liver microsomes at 5 uM using phenacetin as substrate by LC-MS/MS analysis relative to control; format: ADME; details: probe phenacetin
T3 sequence (P05177 whole entry): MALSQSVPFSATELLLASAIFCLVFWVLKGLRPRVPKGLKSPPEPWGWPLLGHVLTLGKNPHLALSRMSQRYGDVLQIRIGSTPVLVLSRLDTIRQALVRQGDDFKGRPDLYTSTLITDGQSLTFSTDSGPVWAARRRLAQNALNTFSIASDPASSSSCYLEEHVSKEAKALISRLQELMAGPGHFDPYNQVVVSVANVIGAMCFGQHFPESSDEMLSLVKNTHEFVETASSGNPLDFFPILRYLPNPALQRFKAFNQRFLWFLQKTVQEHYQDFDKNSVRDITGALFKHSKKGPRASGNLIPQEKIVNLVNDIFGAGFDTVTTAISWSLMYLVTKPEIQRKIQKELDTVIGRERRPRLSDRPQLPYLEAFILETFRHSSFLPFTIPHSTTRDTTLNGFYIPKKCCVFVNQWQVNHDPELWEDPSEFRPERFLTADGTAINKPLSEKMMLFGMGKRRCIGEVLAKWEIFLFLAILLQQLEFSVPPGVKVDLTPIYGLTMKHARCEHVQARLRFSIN

Mus musculus [6] = assay: Antidiabetic activity in ICR mouse assessed as blood glucose levels at 50 mg/kg, po administered 1 hr prior to glucose challenge measured at 30 mins post glucose challenge (reference value: 227.6 +/- 18.7 mg/dl); format: functional
Mus musculus [7] = assay: Antidiabetic activity in ICR mouse assessed as blood glucose levels at 50 mg/kg, po administered 1 hr prior to glucose challenge measured at 60 mins post glucose challenge (reference value: 175.8 +/- 25 mg/dl); format: functional
Mus musculus [8] = assay: Antidiabetic activity in ICR mouse assessed as blood glucose levels at 50 mg/kg, po administered 1 hr prior to glucose challenge measured at 120 mins post glucose challenge (reference value: 53.7 +/- 9.9 mg/dl); format: functional
Mus musculus [9] = assay: Antidiabetic activity in ICR mouse assessed as blood glucose AUC at 50 mg/kg, po administered 1 hr prior to glucose challenge measured after 120 mins post glucose challenge (reference value: 290 +/ 23.5 mg.hr/dl); format: functional, organism-based; set-up: dose 50 mg/kg, time < 2 hr
CYP1A2 [10] = target: T3, CYP1A2; assay: Inhibition of CYP1A2 in human liver microsomes at 10 uM using phenacetin as substrate by LC-MS/MS analysis relative to control; format: ADME; details: probe phenacetin
Mus musculus [11] = assay: Antidiabetic activity in ICR mouse assessed as reduction of blood glucose AUC at 50 mg/kg, po administered 1 hr prior to glucose challenge measured after 120 mins post glucose challenge relative to control; format: functional; set-up: scale not given: the % may be the effect or the level left
CYP2D6 [12] = target: T2, CYP2D6; assay: Inhibition of CYP2D6 in human liver microsomes at 2 uM using dextromethorphan as substrate by LC-MS/MS analysis relative to control; details: probe dextromethorphan

Chain of CYP2C9 (P11712 whole entry): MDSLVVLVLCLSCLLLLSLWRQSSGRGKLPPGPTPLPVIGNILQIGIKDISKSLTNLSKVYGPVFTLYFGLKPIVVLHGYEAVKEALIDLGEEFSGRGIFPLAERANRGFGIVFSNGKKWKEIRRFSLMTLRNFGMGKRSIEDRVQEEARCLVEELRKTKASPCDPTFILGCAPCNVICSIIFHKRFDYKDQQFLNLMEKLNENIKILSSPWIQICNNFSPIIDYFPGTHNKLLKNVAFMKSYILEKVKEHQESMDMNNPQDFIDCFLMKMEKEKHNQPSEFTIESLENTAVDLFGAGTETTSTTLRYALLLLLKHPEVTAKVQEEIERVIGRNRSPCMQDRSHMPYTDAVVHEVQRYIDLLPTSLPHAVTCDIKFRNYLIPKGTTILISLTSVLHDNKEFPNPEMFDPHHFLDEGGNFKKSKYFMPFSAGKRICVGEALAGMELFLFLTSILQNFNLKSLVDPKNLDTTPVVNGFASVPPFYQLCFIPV
T1 sequence (O14842 whole entry, the tested form may be a part): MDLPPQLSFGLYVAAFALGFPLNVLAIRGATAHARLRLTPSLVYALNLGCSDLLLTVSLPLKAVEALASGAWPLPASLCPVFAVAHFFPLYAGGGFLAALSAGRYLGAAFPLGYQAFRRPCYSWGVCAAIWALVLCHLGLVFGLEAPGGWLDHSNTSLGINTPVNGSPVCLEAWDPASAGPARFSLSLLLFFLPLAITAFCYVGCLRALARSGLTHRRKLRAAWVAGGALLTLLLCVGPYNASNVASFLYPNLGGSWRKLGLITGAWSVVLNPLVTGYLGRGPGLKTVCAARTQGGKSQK
T2 sequence (P10635 whole entry): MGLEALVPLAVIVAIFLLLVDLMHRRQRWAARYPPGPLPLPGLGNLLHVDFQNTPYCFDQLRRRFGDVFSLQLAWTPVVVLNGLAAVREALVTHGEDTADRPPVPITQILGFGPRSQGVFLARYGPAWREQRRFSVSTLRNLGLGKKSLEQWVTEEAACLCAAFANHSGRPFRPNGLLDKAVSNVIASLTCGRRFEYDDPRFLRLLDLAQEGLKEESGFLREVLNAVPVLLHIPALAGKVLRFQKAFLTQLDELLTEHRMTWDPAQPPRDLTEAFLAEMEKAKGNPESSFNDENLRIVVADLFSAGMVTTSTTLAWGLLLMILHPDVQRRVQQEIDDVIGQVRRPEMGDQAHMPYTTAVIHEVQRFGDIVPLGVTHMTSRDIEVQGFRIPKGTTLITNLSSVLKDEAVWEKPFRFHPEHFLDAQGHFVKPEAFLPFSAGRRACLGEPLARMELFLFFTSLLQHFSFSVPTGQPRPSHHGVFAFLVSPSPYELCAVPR
Chain of CYP3A4 (P08684 whole entry): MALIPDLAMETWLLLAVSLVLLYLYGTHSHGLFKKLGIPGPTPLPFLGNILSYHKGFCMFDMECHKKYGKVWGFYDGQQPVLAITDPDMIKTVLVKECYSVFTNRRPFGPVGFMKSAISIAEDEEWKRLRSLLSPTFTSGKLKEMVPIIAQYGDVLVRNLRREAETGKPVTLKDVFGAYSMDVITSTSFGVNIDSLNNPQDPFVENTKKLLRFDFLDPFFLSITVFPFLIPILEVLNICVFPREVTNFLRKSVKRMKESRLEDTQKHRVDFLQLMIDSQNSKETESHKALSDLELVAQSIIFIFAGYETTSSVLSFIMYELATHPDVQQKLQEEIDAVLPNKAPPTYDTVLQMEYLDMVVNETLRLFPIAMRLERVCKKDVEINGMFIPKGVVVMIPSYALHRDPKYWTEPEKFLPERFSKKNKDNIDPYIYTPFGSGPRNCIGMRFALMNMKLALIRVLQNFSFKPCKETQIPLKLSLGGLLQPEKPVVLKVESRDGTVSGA

## O=C(O)C[C@@H]1COc2cc(OCc3cccc(-c4cccc5c4CCN(Cc4ccccc4)C5)c3)ccc21
[1]
  Activity: 89.4%
[2]
  EC50: 5400 nM

## O=C(O)COc1ccc(OCc2cccc(-c3ccc4c(c3)CN(Cc3ccccc3)C4)c2)cc1
[1]
  Activity: 18.9%

## CCN1CCc2c(cccc2-c2cccc(COc3ccc4c(c3)OC[C@H]4CC(=O)O)c2)C1
[1]
  Activity: 7.8%

## CC(C)(CC(=O)O)c1ccc(OCc2cccc(-c3ccc4c(c3)CN(Cc3ccccc3)CC4)c2)cc1
[1]
  Activity: 22.8%

## Nc1ccc(S(=O)(=O)Nc2ccnn2-c2ccccc2)cc1 [SULFAPHENAZOLE]
CYP2C9
  inhibition at 5 µM: 94.9%

## O=C(O)C[C@@H]1COc2cc(OCc3cccc(-c4ccc5c(c4)CN(C(=O)c4ccccc4)C5)c3)ccc21
[1]
  Activity: 60.8%

## Cl.O=C(O)C[C@@H]1COc2cc(OCc3cccc(-c4ccc5c(c4)CN(Cc4ccccc4)CC5)c3)ccc21
[1]
  Activity: 108%
[2]
  EC50: 800 nM
[3]
  Activity: 2.8 ng/mL
CYP2D6 [4]
  inhibition at 5 µM: 39.5%
CYP2C9
  inhibition at 5 µM: 3.94%
CYP3A4
  inhibition at 5 µM: 27.6%
CYP1A2 [5]
  inhibition at 5 µM: 25.7%
Mus musculus [6]
  Activity: 214.1 mg/dL
Mus musculus [7]
  Activity: 172.7 mg/dL
Mus musculus [8]
  Activity: 58 mg/dL
Mus musculus [9]
  AUC: 2.81e+06 ng·h/mL

## CC(C)(CC(=O)O)c1ccc(OCc2cccc(-c3cccc4c3CCN(Cc3ccccc3)C4)c2)cc1
[1]
  Activity: 90%
[2]
  EC50: 800 nM

## O=C(O)C[C@@H]1COc2cc(OCc3cccc(-c4cccc5c4CCN(C(=O)c4ccccc4)C5)c3)ccc21
[1]
  Activity: 84.2%
[2]
  EC50: 2200 nM

## O=C(O)C[C@@H]1COc2cc(OCc3cccc(-c4ccc5c(c4)CCN(C(=O)Cc4ccccc4)C5)c3)ccc21
[1]
  Activity: 31.6%

## O=C(O)C[C@@H]1COc2cc(OCc3cccc(-c4ccc5c(c4)CN(C(=O)Cc4ccccc4)CC5)c3)ccc21
[1]
  Activity: 20.4%

## O=C(O)C[C@@H]1COc2cc(OCc3cccc(-c4ccc5c(c4)CN(C(=O)c4ccccc4)CC5)c3)ccc21
[2]
  Activity: 46%

## O=C(O)C[C@@H]1COc2cc(OCc3cccc(-c4ccc5c(c4)CN(Cc4ccccc4)C5)c3)ccc21
[1]
  Activity: 89.8%
[2]
  EC50: 3000 nM

## O=C(O)COc1ccc(OCc2cccc(-c3ccc4c(c3)CN(Cc3ccccc3)CC4)c2)cc1
[1]
  Activity: 4.6%

## O=C(O)C[C@@H]1COc2cc(OCc3cccc(-c4cccc5c4CCN(CCc4ccccc4)C5)c3)ccc21
[1]
  Activity: 54.8%

## CC(=O)N1CCc2c(cccc2-c2cccc(COc3ccc4c(c3)OC[C@H]4CC(=O)O)c2)C1
[1]
  Activity: 43.6%

## Cc1nc2c([nH]1)c(=O)n(C)c(=O)n2Cc1ccco1 [FURAFYLLINE]
CYP1A2 [10]
  inhibition at 10 µM: 71.4%

## CC(C)(CC(=O)O)c1ccc(OCc2cccc(-c3ccc4c(c3)CCN(Cc3ccccc3)C4)c2)cc1
[1]
  Activity: 58.6%

## O=C(O)C[C@@H]1COc2cc(OCc3cccc(-c4ccc5c(c4)CN(CCc4ccccc4)C5)c3)ccc21
[1]
  Activity: 77%

## O=C(O)C[C@@H]1COc2cc(OCc3cccc(-c4ccc5c(c4)CCN(C(=O)c4ccccc4)C5)c3)ccc21
[1]
  Activity: 39.8%

## O=C(O)C[C@@H]1COc2cc(OCc3cccc(-c4ccc5c(c4)CCN(CCc4ccccc4)C5)c3)ccc21
[1]
  Activity: 85%
[2]
  EC50: 4000 nM

## CC(=O)N1CCc2cc(-c3cccc(COc4ccc5c(c4)OC[C@H]5CC(=O)O)c3)ccc2C1
[1]
  Activity: 5%

## Cl.O=C(O)C[C@@H]1COc2cc(OCc3cccc(-c4ccc5c(c4)CCN(Cc4ccccc4)C5)c3)ccc21
[1]
  Activity: 136%
[2]
  EC50: 1200 nM
[3]
  Activity: 2.9 ng/mL
CYP2D6 [4]
  inhibition at 5 µM: 23.6%
CYP2C9
  inhibition at 5 µM: 16.2%
CYP3A4
  inhibition at 5 µM: 30.7%
CYP1A2 [5]
  inhibition at 5 µM: 20.9%
Mus musculus [6]
  Activity: 196.2 mg/dL
Mus musculus [7]
  Activity: 150.2 mg/dL
Mus musculus [8]
  Activity: 49.9 mg/dL
Mus musculus [11]
  Activity: 13.8%

## O=C(O)COc1ccc(OCc2cccc(-c3cccc4c3CCN(Cc3ccccc3)C4)c2)cc1
[1]
  Activity: 28.8%

## CC(=O)N1Cc2ccc(-c3cccc(COc4ccc5c(c4)OC[C@H]5CC(=O)O)c3)cc2C1
[1]
  Activity: 36.8%

## O=C(O)C[C@@H]1COc2cc(OCc3cccc(-c4ccc5c(c4)CN(C(=O)Cc4ccccc4)C5)c3)ccc21
[1]
  Activity: 34.8%

## CC(C)(CC(=O)O)c1ccc(OCc2cccc(-c3ccc4c(c3)CN(Cc3ccccc3)C4)c2)cc1
[1]
  Activity: 23.8%

## Cc1cc(OCCCS(C)(=O)=O)cc(C)c1-c1cccc(COc2ccc3c(c2)OC[C@H]3CC(=O)O)c1
[3]
  Activity: 2.1 ng/mL
CYP2D6 [4]
  inhibition at 5 µM: 23.2%
CYP2C9
  inhibition at 5 µM: 21%
CYP3A4
  inhibition at 5 µM: 34%
CYP1A2 [5]
  inhibition at 5 µM: 28%
Mus musculus [6]
  Activity: 155.2 mg/dL
Mus musculus [7]
  Activity: 120 mg/dL
Mus musculus [8]
  Activity: 49 mg/dL
Mus musculus [9]
  AUC: 2.07e+06 ng·h/mL

## C=C[C@H]1C[N@@]2CC[C@H]1C[C@@H]2[C@@H](O)c1ccnc2ccc(OC)cc12 [QUINIDINE]
CYP2D6 [12]
  inhibition at 2 µM: 93.3%

## O=C(O)COc1ccc(OCc2cccc(-c3ccc4c(c3)CCN(Cc3ccccc3)C4)c2)cc1
[1]
  Activity: 17.8%
